What was measured:
[1] = Clearance in male ICR mouse at 20 mg/kg, ip measured up to 24 hrs by LC-MS/MS analysis; format: ADME, organism-based; conditions: in vivo
[2] = AUC (0 to t) in male ICR mouse at 5 mg/kg, iv measured up to 24 hrs by LC-MS/MS analysis; format: ADME, organism-based; parameters: time < 24 hrs, dose 5 mg/kg, route iv; conditions: in vivo
[3] = test system: CT26; experiment: Antiproliferative activity against mouse CT26 cells after 72 hrs by CCK-8 assay; format: functional
[4] = target: T1, Adenosine receptor A1 (Homo sapiens, UniProt P30542); experiment: Displacement of [3H]DPCPX from human A1AR incubated for 60 mins by scintillation counter analysis
T1 sequence (P30542 whole entry): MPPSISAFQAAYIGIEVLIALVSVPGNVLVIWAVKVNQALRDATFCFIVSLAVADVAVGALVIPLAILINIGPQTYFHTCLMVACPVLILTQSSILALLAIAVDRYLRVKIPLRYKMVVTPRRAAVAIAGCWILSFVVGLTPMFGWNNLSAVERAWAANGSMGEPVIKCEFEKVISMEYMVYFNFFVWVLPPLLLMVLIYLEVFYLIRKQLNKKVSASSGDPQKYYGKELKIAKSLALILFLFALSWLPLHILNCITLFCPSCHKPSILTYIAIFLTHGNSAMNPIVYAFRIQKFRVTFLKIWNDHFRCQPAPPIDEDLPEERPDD

[5] = target: T2, Adenosine receptor A2b (Homo sapiens, UniProt P29275); experiment: Displacement of [3H]DPCPX from human A2BAR incubated for 60 mins by scintillation counter analysis
T2 sequence (P29275 whole entry): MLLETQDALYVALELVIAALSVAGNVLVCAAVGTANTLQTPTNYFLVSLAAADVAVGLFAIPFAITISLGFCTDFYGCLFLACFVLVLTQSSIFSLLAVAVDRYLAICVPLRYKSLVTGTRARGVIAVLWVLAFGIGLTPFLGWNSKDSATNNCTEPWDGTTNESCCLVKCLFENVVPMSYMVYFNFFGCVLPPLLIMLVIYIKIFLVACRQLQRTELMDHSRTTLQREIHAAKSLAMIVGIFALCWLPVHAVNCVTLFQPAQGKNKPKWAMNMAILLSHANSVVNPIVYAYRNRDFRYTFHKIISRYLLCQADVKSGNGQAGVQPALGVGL

[6] = Bioavailability in male ICR mouse at 20 mg/kg,ip measured up to 24 hrs by LC-MS/MS analysis; format: ADME, organism-based; conditions: in vivo
[7] = Tmax in male ICR mouse at 20 mg/kg, po measured up to 24 hrs by LC-MS/MS analysis; format: ADME, organism-based; conditions: in vivo
[8] = test system: MC-38; experiment: Antitumor activity against mouse MC38 cells xenografted in C57 mouse assessed as tumor growth inhibition at 150 mg/kg, po administered once a day; format: functional; conditions: read-out: TGI
[9] = target: T3, Adenosine receptor A3 (Homo sapiens, UniProt P0DMS8); experiment: Displacement of [3H]HEMADO from human A3AR incubated for 60 mins by scintillation counter analysis
T3 sequence (P0DMS8 whole entry): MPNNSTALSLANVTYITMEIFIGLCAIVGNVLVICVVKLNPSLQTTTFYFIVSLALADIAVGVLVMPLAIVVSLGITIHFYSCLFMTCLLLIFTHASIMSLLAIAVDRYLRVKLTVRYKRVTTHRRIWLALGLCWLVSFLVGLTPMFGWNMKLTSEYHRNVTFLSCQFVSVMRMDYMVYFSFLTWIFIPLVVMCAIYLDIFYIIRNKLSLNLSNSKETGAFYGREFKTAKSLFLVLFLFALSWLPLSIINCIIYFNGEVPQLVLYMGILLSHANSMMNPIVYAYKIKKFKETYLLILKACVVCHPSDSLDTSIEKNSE

[10] = Mean residence time in male ICR mouse at 20 mg/kg, ip measured up to 24 hrs by LC-MS/MS analysis; format: ADME, organism-based; conditions: in vivo
[11] = Mean residence time in male ICR mouse at 20 mg/kg, po measured up to 24 hrs by LC-MS/MS analysis; format: ADME, organism-based; conditions: in vivo
[12] = Mean residence time in male ICR mouse at 5 mg/kg, iv measured up to 24 hrs by LC-MS/MS analysis; format: ADME, organism-based; conditions: in vivo
[13] = Cmax in male ICR mouse at 5 mg/kg, iv measured up to 24 hrs by LC-MS/MS analysis; format: ADME, organism-based; parameters: dose 5 mg/kg, time < 24 hrs, route iv; conditions: in vivo
[14] = target: T4, Protein deacetylase HDAC6 (Homo sapiens, UniProt Q9UBN7); experiment: Inhibition of HDAC6 (unknown origin) using trypsin and LGK(Ac)-AMC as substrates incubated for 1 hr and measured by fluorescence assay
T4 sequence (Q9UBN7 whole entry): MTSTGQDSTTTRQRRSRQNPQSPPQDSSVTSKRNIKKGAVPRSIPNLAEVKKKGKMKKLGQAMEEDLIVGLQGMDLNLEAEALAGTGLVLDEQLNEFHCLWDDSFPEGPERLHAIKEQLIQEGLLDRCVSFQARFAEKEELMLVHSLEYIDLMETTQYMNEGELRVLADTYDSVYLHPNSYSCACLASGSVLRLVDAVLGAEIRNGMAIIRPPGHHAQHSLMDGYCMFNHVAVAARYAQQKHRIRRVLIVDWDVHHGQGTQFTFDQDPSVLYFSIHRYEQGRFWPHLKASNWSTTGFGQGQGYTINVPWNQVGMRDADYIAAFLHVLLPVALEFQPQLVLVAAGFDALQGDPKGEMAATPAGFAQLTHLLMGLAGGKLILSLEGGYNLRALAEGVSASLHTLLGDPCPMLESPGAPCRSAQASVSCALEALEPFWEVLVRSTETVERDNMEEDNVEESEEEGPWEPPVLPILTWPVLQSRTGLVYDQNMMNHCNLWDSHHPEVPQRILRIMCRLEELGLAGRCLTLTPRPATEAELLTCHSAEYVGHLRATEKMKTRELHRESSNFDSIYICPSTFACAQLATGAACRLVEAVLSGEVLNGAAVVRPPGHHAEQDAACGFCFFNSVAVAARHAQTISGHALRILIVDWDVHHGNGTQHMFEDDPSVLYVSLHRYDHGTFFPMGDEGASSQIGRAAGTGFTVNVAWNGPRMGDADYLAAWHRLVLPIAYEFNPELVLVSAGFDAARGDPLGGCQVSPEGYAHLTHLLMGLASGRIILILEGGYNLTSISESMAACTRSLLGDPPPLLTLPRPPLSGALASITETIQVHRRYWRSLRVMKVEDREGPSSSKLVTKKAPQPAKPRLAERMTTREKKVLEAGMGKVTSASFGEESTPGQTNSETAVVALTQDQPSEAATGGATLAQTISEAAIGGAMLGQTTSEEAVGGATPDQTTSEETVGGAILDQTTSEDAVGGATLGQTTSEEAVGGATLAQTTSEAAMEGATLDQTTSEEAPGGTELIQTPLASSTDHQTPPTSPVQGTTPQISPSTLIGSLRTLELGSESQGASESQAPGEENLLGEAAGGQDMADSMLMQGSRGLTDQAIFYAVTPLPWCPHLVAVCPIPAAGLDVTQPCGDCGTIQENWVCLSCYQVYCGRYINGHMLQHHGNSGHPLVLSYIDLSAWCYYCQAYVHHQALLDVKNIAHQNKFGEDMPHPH

Nc1nc(-c2ccco2)c2cnn(CCc3ccc(C(=O)Nc4ccccc4N)cc3)c2n1
CL/F [1]: 33.5 mL/min/kg | AUCt [2]: 2098 ng·h/mL | GI50 [3]: 380 nM | Ki [4]: 503 nM | Ki [5]: > 10000 nM | bioavailability [6]: 119% | Tmax [7]: 20 min | inhibition in vivo at 150 mg/kg [8]: 26% | Ki [9]: > 10000 nM | MRT [10]: 57 min | MRT [11]: 77.4 min | MRT [12]: 23.4 min | Cmax [13]: 4700 ng/mL | IC50 [14]: > 10000 nM

Reference: ChEMBL document CHEMBL5154845, “Dual-acting antitumor agents targeting the A2A adenosine receptor and histone deacetylases: Design and synthesis of 4-(furan-2-yl)-1H-pyrazolo[3,4-d]pyrimidin-6-amine derivatives” (Eur J Med Chem, 2022)
